Test results taken from patent publication US7795305B2, “CDDO-compounds and combination therapies thereof” (Board of Regents, The University of Texas System, priority 2000, dated 2010).

Tests used:
[1] = target: T1, PPARγ LBD (Homo sapiens, UniProt P37231); test: Scintillation proximity assay (SPA), competition binding; details: read-out: Ki, competition with [3H]-rosiglitazone for binding to PPARγ LBD
T1 construct: bacterially expressed PPARγ LBD; made in house
Text: PPARγ, a member of a family of nuclear receptors, induces differentiation and growth arrest in preadipocyte cells and can mediate inflammatory processes.

[2] = system: RXR-expressing HL-60 cells; test: Acetylation of nuclear histones, Western blot; type: cell-based, human; details: alone or with RXR-specific ligand LG-100268
Text: PPARγ must form a heterodimer with RXR to bind DNA and activate transcription (Nolte et al., 1998). RXR-specific ligands markedly induce the binding of the co-activator SRC-1 to PPARγ-RXR heterodimers ([…] et al., 1998), and assembly of this complex results in a large increase in transcriptional activity. […] One method to increase the effects of PPARγ ligands contemplated herein is by combination with ligands specific for RXR. […] TSA, the histone deacetylase inhibitor, served as a positive control. Combination of the PPARγ ligand CDDO with TSA synergistically induce differentiation in HL-60 cells and the present inventors contemplate that this is a result of transcriptional activation of target genes via histone acetylation.

[3] = system: HL-60 cells; test: Mitochondrial membrane potential (JC-1, CMXRos); type: cell-based, human; details: for cells with low CMXRos staining / cells with low JC-1: 1 μM
Procedure: Cytofluorometric analysis of the Δψm. To evaluate the Δψm, cells were incubated with the cationic lipophilic dye […] (CMXRos; 150 nM; Molecular Probes, Inc., Eugene, Oreg.). CMXRos is incorporated into mitochondria driven by the […] and reacts with thiol residues to form covalent thiol ester bonds. CMXRos fluorescence was recorded by flow cytometry in the FL3 channel. Background values of the apoptosis of control cells cultured without the CDDO-Me or in DMSO-solvent control (<10% CMXRos-low) were subtracted from the values obtained under the experimental conditions.
In a series of experiments, cells were pretreated for 1 hour with 50 μM CyA or 50 μM BA prior to the addition of CDDO-Me. These agents prevent a reduction in Δψm induced by various agents that open mitochondrial permeability transition pores.
An early mitochondrial disruption has been observed in a number of different models of apoptosis. Changes in the cellular content of the cationic lipophilic fluorochrome CMXRos were determined by FACS analysis to measure loss of the mitochondrial membrane potential (Δψ) (Macho et al., 1996). […] Similarly, exposure of HL-60 to CDDO-Me (1 μM) for 2 and 4 hrs increased the number of cells with low JC-1 (57 and 60%) or CMXRos staining (46 and 57%), both assays measuring the decrease in Δψ. CDDO-Me-induced changes in the mitochondrial membrane potential of the cells preceded caspase activation and changes in the composition of the plasma membrane. In order to validate the role of the dissipation of Δψ in CDDO-treated cells the pharmacological inhibitors of permeability transition cyclosporin A (CyA) (Nicolli et al., 1996) (10 μM, Sandoz) and bongkrekic acid (BA) (Marchetti et al., 1996) (Calbiochem, Calif.) were used. […] The same effect was observed using BA (52% in CDDO-Me treated HL-60 cells, 23% when cells were pre-treated with BA).

[4] = system: HL-60 cells; test: Annexin V staining; type: cell-based, human; details: 0.1 μM CDDO-Me alone or combined with 1 μM ATRA
Procedure: Annexin V staining. Cells were washed in phosphate-buffered saline (PBS) and resuspended in 100 μl of binding buffer containing Annexin V (Roche Diagnostic Corporation, Indianapolis, Ind.). Cells were analyzed by flow cytometry after the addition of propidium iodide (PI). Annexin V binds to those cells that express phosphatidylserine on the outer layer of the cell membrane, and PI stains the cellular DNA of those cells with a compromised cell membrane. This allows for live cells (unstained with either fluorochrome) to be discriminated from apoptotic cells (stained only with annexin V) and necrotic cells (stained with both annexin and PI).
CDDO-Me. CDDO-Me and retinoids synergistically decrease viability and induce differentiation in leukemic cell lines. The inventors tested the Effect of CDDO-Me/ATRA combinations in different leukemic cell lines. […] This was confirmed in HL-60 cells by annexin V staining (17.9 vs 30% positive cells when 0.1 μM of CDDO-Me was combined with 1 μM ATRA). In primary AML, ATRA enhanced CDDO-Me-induced apoptosis in 3/8 samples tested (an example of subG1 flow cytometry in AML sample shown in FIG. 32).

T1 sequence (P37231 238-503 limits assumed): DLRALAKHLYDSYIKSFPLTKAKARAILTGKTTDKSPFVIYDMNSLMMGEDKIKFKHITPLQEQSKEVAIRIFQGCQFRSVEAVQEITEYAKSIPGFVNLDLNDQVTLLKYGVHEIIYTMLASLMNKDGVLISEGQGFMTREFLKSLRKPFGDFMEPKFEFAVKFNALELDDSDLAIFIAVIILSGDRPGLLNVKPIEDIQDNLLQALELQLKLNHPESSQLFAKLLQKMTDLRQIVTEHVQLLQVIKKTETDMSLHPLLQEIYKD

| SMILES | Ki [1] | acetylation of histones H3 and H4 [2] | cells with low CMXRos staining ([3]; 2 hrs) | cells with low JC-1 ([3]; 2 hrs) | cells with low CMXRos staining ([3]; 4 hrs) | cells with low JC-1 ([3]; 4 hrs) | cells with Δψ loss ([3]; CDDO-Me alone) | cells with Δψ loss ([3]; cells pre-treated with bongkrekic acid (BA)) | annexin V positive cells [4] |
| --- | --- | --- | --- | --- | --- | --- | --- | --- | --- |
| CC1(C)CCC2(C(=O)O)CCC3(C)C(C(=O)C=C4C5(C)C=C(C#N)C(=O)C(C)(C)C5CCC43C)C2C1 (stereo not drawn) [CDDO, 2-cyano-3,12-dioxoolen-1,9-dien-28-oic acid] | 12 nM | induction of acetylation of histones H3 and H4 | – | – | – | – | – | – | – |
| COC(=O)[C@]12CCC(C)(C)C[C@H]1[C@H]1C(=O)C=C3[C@@]4(C)C=C(C#N)C(=O)C(C)(C)[C@@H]4CC[C@@]3(C)[C@]1(C)CC2 [CDDO-Me] | – | – | 46% | 57% | 57% | 60% | 52% | 23% | 17.9% |
